Test results as given in US6365616B1, “Methimazole derivatives and tautomeric cyclic thiones to treat autoimmune diseases” (Sentron Medical, Inc., priority 1998, dated 2002).
Marks after values point to notes of the source that are not given here.

System: (NZB x NZW)F1 mice
Test: Prevention of proteinuria (SLE model) in female (NZB x NZW)F1 mice
Type: in vivo
Settings: for Animals with proteinuria, 30-500 (mg/dl proteinuria) / Animals with proteinuria, >500 (mg/dl proteinuria) / Animals with proteinuria, Neg-Trace (mg/dl proteinuria) / development of proteinuria at 7.5 mos: oral; for Animals with proteinuria, 30-500 (mg/dl proteinuria) / Animals with proteinuria, >500 (mg/dl proteinuria) / Animals with proteinuria, Neg-Trace (mg/dl proteinuria): 0.05% MMI, 0.01% 5-phenylmethimazole, 0.05% 2-mercaptoimidazole; for development of proteinuria at 7.5 mos: compound 10 at a fifth the MMI concentration; for significant numbers of immune complexes in kidneys (FIG. 15): immunohistology of frozen kidney sections
From the text: Female (NZB x NZW)F1 mice were obtained from Jackson Labs. Animals were followed with AMES 2855 Uristix (Miles) to semiquantitatively measure proteinuria. Proteinuria was taken as a measure of development of SLE and MMI suppression of proteinuria as suppression of renal complexes in kidney (Mozes et al., J. Clin Immunology 18:106-113 (1998)). At 7-8 mos. mice develop proteinuria reflecting renal disease. Treatment was from 2 mos to 6 mos of age. Treatment was oral. Each group had 8 animals to start.
In this experiment, immunohistology was performed in a blind fashion on 5 μm thick frozen kidney sections which were fixed and stained with FITC-conjugated goat antibodies to immunoglobulin G (γ chain specific) as described (Mozes, et al., Science 261:91-93 (1993); Mozes, E., et al., ibid (1998)). Compound 10, a tautomeric cyclic thione, and MMI are effective in preventing SLE in this experimental model.
Death of some animals in this experiment occurred for technical reasons, i.e. flooding of cages, handling, etc., in the last 2 mos. However, losses in the control group were similar to experimental groups. MMI, 2-mercaptoimidazole, and Compound 10 treatments were administered during the period between 2 and 6.25 months of age.

Row | Compound | Animals with proteinuria, 30-500 (mg/dl proteinuria) (6 mos) | Animals with proteinuria, >500 (mg/dl proteinuria) (6 mos) | Animals with proteinuria, Neg-Trace (mg/dl proteinuria) (6 mos) | Animals with proteinuria, 30-500 (mg/dl proteinuria) (7.5 mos) | Animals with proteinuria, >500 (mg/dl proteinuria) (7.5 mos) | Animals with proteinuria, Neg-Trace (mg/dl proteinuria) (7.5 mos) | development of proteinuria at 7.5 mos | significant numbers of immune complexes in kidneys (FIG. 15) | toxicity in vivo (one-fifth the MMI concentration, NZB and NOD mouse experiments)
1 | Sc1ncc[nH]1 [Compound 3, 2-Mercaptoimidazole] | 4 of 7 | 0 of 7 | 3 of 7 | 3 of 6 | 3 of 6 | 0 of 6 | developed significant proteinuria | – | –
2 | Cn1c(-c2ccccc2)cnc1S [Compound 10, 5-Phenylmethimazole] | 0 of 8 | 0 of 8 | 8 of 8 | 1 of 6 | 0 of 6 | 5 of 6* | significantly prevented proteinuria | not true | nontoxic
3 | Cn1ccnc1S [Compound 1, 1-Methylimidazole-2-thiol] | 0 of 8 | 0 of 8 | 8 of 8 | 2 of 5 | 0 of 5 | 3 of 5 | significantly prevented proteinuria | not true | –
